Measured values as given in patent publication US20130150377A1, “Tetrahydropyridinyl and Dihydropyrrolyl Compounds and the Use Thereof” (SHIONOGI & CO., LTD., priority 2008, published 2013).
Where a name gives a salt, the structure may show the parent alone.

Each molecule was assayed against T1, N-type calcium channel (NTCC) (Homo sapiens, UniProt Q00975) (assay: FLIPR calcium mobilization assay for N-type calcium channel (differentiated IMR32 cells)). Settings: N-type calcium channel blockers, calcium mobilization in vitro assay.
T1 construct: endogenous in cells; host or cells: differentiated IMR32 cells (ATCC)
T1 sequence (Q00975 whole entry): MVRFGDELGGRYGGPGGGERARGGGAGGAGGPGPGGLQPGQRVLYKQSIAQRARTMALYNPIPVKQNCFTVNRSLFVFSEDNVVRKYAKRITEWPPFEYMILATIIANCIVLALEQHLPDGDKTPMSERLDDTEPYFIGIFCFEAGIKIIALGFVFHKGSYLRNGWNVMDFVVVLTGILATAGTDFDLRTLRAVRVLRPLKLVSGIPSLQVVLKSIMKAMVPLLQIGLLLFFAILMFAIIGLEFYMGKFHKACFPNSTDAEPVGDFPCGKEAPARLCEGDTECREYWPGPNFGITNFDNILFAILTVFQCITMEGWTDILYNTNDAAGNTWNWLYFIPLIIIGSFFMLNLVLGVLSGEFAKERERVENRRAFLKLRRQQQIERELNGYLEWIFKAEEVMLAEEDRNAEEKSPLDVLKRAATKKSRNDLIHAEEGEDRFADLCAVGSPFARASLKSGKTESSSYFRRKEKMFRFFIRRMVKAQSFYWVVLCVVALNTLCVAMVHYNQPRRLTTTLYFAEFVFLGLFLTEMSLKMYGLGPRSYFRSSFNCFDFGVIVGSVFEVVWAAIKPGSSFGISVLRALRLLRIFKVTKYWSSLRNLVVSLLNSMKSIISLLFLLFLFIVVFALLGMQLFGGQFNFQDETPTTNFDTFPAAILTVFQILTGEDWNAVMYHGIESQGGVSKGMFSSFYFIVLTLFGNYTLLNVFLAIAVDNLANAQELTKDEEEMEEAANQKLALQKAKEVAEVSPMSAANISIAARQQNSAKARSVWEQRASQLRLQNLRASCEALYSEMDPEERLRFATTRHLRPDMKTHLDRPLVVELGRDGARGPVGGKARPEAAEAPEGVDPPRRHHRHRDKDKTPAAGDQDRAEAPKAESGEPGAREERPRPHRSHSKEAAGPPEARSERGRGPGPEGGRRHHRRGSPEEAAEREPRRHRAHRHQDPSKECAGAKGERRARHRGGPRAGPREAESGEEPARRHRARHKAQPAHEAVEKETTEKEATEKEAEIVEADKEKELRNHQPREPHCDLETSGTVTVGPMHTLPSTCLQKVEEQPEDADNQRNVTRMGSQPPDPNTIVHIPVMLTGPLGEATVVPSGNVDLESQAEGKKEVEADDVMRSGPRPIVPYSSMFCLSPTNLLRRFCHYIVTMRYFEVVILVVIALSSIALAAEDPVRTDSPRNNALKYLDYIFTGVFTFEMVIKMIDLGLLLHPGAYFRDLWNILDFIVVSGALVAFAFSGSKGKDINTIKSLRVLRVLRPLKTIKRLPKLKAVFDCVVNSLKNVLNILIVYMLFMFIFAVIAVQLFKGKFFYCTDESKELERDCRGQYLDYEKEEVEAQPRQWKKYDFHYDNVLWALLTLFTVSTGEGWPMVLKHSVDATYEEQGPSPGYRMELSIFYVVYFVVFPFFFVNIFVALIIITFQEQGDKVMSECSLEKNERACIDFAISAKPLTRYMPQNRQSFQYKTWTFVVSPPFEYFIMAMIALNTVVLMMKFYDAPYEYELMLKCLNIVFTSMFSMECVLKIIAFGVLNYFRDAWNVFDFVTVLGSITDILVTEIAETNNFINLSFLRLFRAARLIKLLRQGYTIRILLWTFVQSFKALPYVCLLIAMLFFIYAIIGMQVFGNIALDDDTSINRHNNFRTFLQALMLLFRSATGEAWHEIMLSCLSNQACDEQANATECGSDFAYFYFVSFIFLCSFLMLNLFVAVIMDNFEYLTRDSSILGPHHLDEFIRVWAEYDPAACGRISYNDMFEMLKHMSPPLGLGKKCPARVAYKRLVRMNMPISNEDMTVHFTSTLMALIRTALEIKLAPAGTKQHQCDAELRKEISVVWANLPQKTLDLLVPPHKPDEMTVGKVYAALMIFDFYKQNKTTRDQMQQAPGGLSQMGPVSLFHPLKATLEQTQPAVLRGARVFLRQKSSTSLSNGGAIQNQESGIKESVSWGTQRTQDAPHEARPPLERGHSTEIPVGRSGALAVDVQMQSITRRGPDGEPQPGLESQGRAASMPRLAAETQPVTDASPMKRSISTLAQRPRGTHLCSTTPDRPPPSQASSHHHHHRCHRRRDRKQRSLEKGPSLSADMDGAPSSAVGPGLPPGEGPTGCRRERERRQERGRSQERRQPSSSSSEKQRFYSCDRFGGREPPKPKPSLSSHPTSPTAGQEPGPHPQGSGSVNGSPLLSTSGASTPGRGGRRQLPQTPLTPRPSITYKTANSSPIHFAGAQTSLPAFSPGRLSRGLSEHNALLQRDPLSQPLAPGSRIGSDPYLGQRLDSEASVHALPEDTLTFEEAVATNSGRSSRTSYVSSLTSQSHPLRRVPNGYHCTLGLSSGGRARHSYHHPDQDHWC
T1 sequence (P54289 25-956 partner limits assumed): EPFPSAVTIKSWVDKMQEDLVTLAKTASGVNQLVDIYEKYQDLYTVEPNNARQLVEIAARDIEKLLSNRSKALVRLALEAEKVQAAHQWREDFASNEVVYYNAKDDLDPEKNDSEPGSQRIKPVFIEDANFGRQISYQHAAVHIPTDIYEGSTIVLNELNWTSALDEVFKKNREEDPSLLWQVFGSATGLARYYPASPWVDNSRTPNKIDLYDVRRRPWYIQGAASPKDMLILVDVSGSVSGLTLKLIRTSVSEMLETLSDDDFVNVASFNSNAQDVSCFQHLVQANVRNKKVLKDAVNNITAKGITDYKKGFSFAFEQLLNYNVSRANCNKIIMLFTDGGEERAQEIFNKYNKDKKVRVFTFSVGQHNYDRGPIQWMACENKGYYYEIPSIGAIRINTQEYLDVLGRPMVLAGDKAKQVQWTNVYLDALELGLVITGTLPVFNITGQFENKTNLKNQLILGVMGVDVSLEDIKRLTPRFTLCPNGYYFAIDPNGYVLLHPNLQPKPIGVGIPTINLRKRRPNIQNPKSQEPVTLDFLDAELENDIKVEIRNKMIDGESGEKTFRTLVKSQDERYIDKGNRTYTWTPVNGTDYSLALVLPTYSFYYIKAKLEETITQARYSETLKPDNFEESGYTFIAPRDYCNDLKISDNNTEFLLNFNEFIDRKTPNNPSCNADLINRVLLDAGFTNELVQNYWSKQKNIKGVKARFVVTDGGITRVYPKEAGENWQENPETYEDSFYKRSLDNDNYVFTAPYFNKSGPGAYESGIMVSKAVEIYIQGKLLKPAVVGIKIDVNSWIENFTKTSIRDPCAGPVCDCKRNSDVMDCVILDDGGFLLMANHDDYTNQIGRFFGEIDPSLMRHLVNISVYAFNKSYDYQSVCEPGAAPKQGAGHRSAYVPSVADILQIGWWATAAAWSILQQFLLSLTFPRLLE
T1 sequence (P54289 957-1103 partner limits assumed): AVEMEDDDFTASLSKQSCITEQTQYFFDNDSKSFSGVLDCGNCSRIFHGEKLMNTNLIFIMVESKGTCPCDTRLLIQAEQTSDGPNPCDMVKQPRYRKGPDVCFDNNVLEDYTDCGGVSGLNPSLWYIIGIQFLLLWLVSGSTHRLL
T1 sequence (P54284 whole entry partner): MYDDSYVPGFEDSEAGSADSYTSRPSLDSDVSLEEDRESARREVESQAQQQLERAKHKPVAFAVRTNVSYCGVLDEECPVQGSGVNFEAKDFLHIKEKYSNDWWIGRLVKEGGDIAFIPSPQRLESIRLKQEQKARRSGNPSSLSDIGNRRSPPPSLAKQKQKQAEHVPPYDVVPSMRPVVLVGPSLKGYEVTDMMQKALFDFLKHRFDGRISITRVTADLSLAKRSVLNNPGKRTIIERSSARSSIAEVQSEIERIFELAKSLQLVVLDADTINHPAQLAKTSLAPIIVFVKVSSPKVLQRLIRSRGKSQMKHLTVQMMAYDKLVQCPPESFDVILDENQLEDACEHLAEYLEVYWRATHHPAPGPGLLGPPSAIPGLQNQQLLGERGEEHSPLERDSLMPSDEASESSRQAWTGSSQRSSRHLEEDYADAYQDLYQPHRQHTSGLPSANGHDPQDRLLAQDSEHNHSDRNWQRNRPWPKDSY
Type: cell-based
Description: Cell maintenance and differentiation. Unless noted otherwise, cell culture reagents were purchased from Mediatech of Herndon, Md. IMR32 cells (American Type Culture Collection, ATCC, Manassas, Va.) were routinely cultured in growth medium consisting of minimum essential medium containing 10% fetal bovine serum (FBS, Hyclone, Logan, Utah), 100 U/mL penicillin, 100 μg/mL streptomycin, 2 mM L-glutamine, 1 mM sodium pyruvate, and 1×MEM non-essential amino acids. 80-90% confluent flasks of cells were differentiated using the following differentiation medium: Growth medium plus 1 mM dibutyryl cyclic AMP (Sigma, St. Louis, Mo.), and 2.5 μM bromodeoxyuridine (Sigma). Cells were differentiated for 8 days by replacing differentiation medium every 2-3 days.
FLIPR Calcium Mobilization Assay for N-type Calcium Channel.
One day prior to performing this assay, differentiated IMR32 cells were treated with 1× CellStripper, and seeded on poly-D-lysine-coated 96-well clear-bottom black plates (Becton Dickinson, Franklin Lakes, N.J.) at 200,000 cells/well. On the day of the assay, the cell plates were washed with IMR32 buffer (127 mM NaCl, 1 mM KCl, 2 mM MgCl2, 700 μM NaH2PO4, 5 mM CaCl2, 5 mM NaHCO3, 8 mM HEPES, 10 mM glucose, pH 7.4), then pre-stimulated with KCl and loaded as follows: […] of IMR32 buffer, 0.05 mL of each compound tested diluted in IMR32 buffer containing 20 μM nitrendipine (Sigma), and 0.1 mL KCl dissolved in IMR32 buffer, plus Fluo-4 were added (3 μM final concentration, Molecular Probes, Eugene, Oreg.). Final test compound concentrations ranged from about 846 pM to about 17 μM, final nitrendipine concentration was 5 μM, and final KCl concentration was 90 mM. After 1 hour, the cells were washed twice with 0.05 mL of each compound tested in nitrendipine-containing IMR32 buffer (no KCl or Fluo-4), and then replaced with 0.1 mL of each compound tested in nitrendipine-containing IMR32 buffer. Plates were then transferred to a Fluorimetric Imaging Plate Reader (FLIPR^96, Molecular Devices, Inc., Sunnyvale, Calif.) for assay. The FLIPR measured basal Fluo-4 fluorescence for 315 seconds (i.e., 5 minutes and 15 seconds), then added 0.1 mL KCl agonist dissolved in IMR32 buffer and measured fluorescence for another 45 seconds. Final test compound concentrations on the cells after FLIPR read ranged from about 846 pM to about 17 μM, final nitrendipine concentration was 5 μM, and final KCl concentration was 90 mM. Data were collected over the entire time course and analyzed using Excel, Graph Pad Prism (version 3.02, Graph Pad, San Diego, Calif.), or an in-house non-linear regression analysis software.
For O=C(NC1CC1)c1cccc(C2=CCN(S(=O)(=O)c3ccccn3)CC2)n1 [1′-(Pyridin-2-ylsulfonyl)-1′,2′,3′,6′-tetrahydro-[2,4′]bipyridinyl-6-carboxylic acid cyclopropylamide], the IC50 was 9920 nM.
O=C(NC1CC1)c1cccc(C2=CCN(S(=O)(=O)c3cccnc3)CC2)n1 [1′-(Pyridin-3-ylsulfonyl)-1′,2′,3′,6′-tetrahydro-[2,4′]bipyridinyl-6-carboxylic acid cyclopropylamide] gave an IC50 of 6180 nM.
Molecule O=C(NC1CC1)c1cccc(C2=CCN(S(=O)(=O)c3ccsc3)CC2)n1 [1′-(Thiophen-3-ylsulfonyl)-1′,2′,3′,6′-tetrahydro-[2,4′]bipyridinyl-6-carboxylic acid cyclopropylamide] has an IC50 of 1050 nM.
Molecule O=C(NC1CC1)c1cccc(C2=CCN(S(=O)(=O)C3CCCCC3)CC2)n1 [1′-Cyclohexylsulfonyl-1′,2′,3′,6′-tetrahydro-[2,4′]bipyridinyl-6-carboxylic acid cyclopropylamide] has an IC50 of 320 nM.
Molecule O=C(NC1CC1)c1cccc(C2=CCN(S(=O)(=O)C3CCCC3)CC2)n1 [1′-Cyclopentylsulfonyl-1′,2′,3′,6′-tetrahydro-[2,4′]bipyridinyl-6-carboxylic acid cyclopropylamide] has an IC50 of 2700 nM.
For CN(C)S(=O)(=O)N1CC=C(c2cccc(C(=O)NC3CC3)n2)CC1 [1′-Dimethylsulfamoyl-1′,2′,3′,6′-tetrahydro-[2,4′]bipyridinyl-6-carboxylic acid cyclopropylamide], the IC50 was > 20000 nM.
With NC(=O)c1ccnc(C2=CCN(S(=O)(=O)c3cccc(C(F)(F)F)c3)CC2)n1 [2-[1-(3-Trifluoromethylbenzenesulfonyl)-1,2,3,6-tetrahydropyridin-4-yl]-pyrimidine-4-carboxylic acid amide] the IC50 was 360 nM.
O=C(NCC1CC1)c1ccnc(C2=CCN(S(=O)(=O)c3cccc(C(F)(F)F)c3)CC2)n1 [2-[1-(3-Trifluoromethylbenzenesulfonyl)-1,2,3,6-tetrahydropyridin-4-yl]pyrimidine-4-carboxylic acid cyclopropylmethylamide] was tested, and the IC50 was 130 nM.
Molecule O=C(NC1CC1)c1ccnc(C2=CCN(S(=O)(=O)c3ccc(OC(F)(F)F)cc3)CC2)n1 [2-[1-(4-Trifluoromethoxybenzenesulfonyl)-1,2,3,6-tetrahydropyridin-4-yl]pyrimidine-4-carboxylic acid cyclopropylamide] has an IC50 of 240 nM.
Work on O=C(NC1CC1)c1nc(C2=CCN(S(=O)(=O)c3ccc(OC(F)(F)F)cc3)CC2)ccc1Cl [5-Chloro-1′-(4-trifluoromethoxybenzenesulfonyl)-1′,2′,3′,6′-tetrahydro-[2,4′]bipyridinyl-6-carboxylic acid cyclopropylamide] yielded an IC50 of 490 nM.
O=C(NC1CC1)c1cccc(C2=CCN(S(=O)(=O)c3cccc(C(F)(F)F)c3)CC2)n1 [Compound 7, 1′-(3-Trifluoromethylbenzenesulfonyl)-1′,2′,3′,6′-tetrahydro-[2,4′]bipyridinyl-6-carboxylic acid cyclopropylamide] gave an IC50 of 30 nM.
NC(=O)c1ccnc(C2=CCN(S(=O)(=O)c3ccc(OC(F)(F)F)cc3)CC2)n1 [Compound 15, 2-[1-(4-Trifluoromethoxybenzenesulfonyl)-1,2,3,6-tetrahydropyridin-4-yl]-pyrimidine-4-carboxylic acid amide] was tested, and the IC50 was > 20000 nM.
COC(=O)c1cccc(C2=CCN(S(=O)(=O)c3cccc(C(F)(F)F)c3)CC2)n1 [Compound 25, 1′-(3-Trifluoromethylbenzenesulfonyl)-1′,2′,3′,6′-tetrahydro-[2,4′]bipyridinyl-6-carboxylic acid methyl ester] showed an IC50 of 920 nM.
For O=C(O)c1cccc(C2=CCN(S(=O)(=O)c3cccc(C(F)(F)F)c3)CC2)n1 [Compound 26, 1′-(3-Trifluoromethylbenzenesulfonyl)-1′,2′,3′,6′-tetrahydro-[2,4′]bipyridinyl-6-carboxylic acid], the IC50 was > 20000 nM.
In the case of O=C(NCC1CC1)c1cccc(C2=CCN(S(=O)(=O)c3cccc(C(F)(F)F)c3)CC2)n1 [Compound 27, 1′-(3-Trifluoromethylbenzenesulfonyl)-1′,2′,3′,6′-tetrahydro-[2,4′]bipyridinyl-6-carboxylic acid cyclopropylmethylamide], the IC50 is reported as 10 nM.
For NC(=O)c1cccc(C2=CCN(S(=O)(=O)c3cccc(C(F)(F)F)c3)CC2)n1 [Compound 28, 1′-(3-Trifluoromethylbenzenesulfonyl)-1′,2′,3′,6′-tetrahydro-[2,4′]bipyridinyl-6-carboxylic acid amide], the IC50 was 590 nM.
N#Cc1cccc(C2=CCN(S(=O)(=O)c3cccc(C(F)(F)F)c3)CC2)n1 [Compound 32, 1′-(3-Trifluoromethylbenzenesulfonyl)-1′,2′,3′,6′-tetrahydro-[2,4′]bipyridinyl-6-carbonitrile] gave an IC50 of 1600 nM.
N=C(NCC1CC1)c1cccc(C2=CCN(S(=O)(=O)c3ccc(OC(F)(F)F)cc3)CC2)n1 [Compound 34, N-Cyclopropylmethyl-1′-(4-trifluoromethoxybenzenesulfonyl)-1′,2′,3′,6′-tetrahydro-[2,4′]bipyridinyl-6-carboxamidine] showed an IC50 of 320 nM.
O=C(NC1CC1)c1ccnc(C2=CCN(S(=O)(=O)c3cccc(C(F)(F)F)c3)CC2)n1 [Compound 39, 2-[1-(3-Trifluoromethylbenzenesulfonyl)-1,2,3,6-tetrahydropyridin-4-yl]pyrimidine-4-carboxylic acid cyclopropylamide] showed an IC50 of 60 nM.
With O=C(NC1CC1)c1nc(C2=CCN(S(=O)(=O)c3cccc(C(F)(F)F)c3)CC2)ccc1Cl [Compound 44, 5-Chloro-1′-(3-trifluoromethylbenzenesulfonyl)-1′,2′,3′,6′-tetrahydro-[2,4′]bipyridinyl-6-carboxylic acid cyclopropylamide] the IC50 was 60 nM.
O=C(NC1CC1)c1cccc(C2=CC3CCC(C2)N3S(=O)(=O)c2cccc(C(F)(F)F)c2)n1 (stereo not drawn) [Compound 55, 6-[8-(3-Trifluoromethylbenzenesulfonyl)-8-aza-bicyclo[3.2.1]oct-2-en-3-yl]pyridine-2-carboxylic acid cyclopropylamide] was tested, and the IC50 was 50 nM.
Work on O=C(NC1CC1)c1coc(C2=CCN(S(=O)(=O)c3ccc(OC(F)(F)F)cc3)CC2)n1 [Compound 61, 2-[1-(4-Trifluoromethoxybenzenesulfonyl)-1,2,3,6-tetrahydropyridin-4-yl]oxazole-4-carboxylic acid cyclopropylamide] yielded an IC50 of 320 nM.
O=C(NC1CC1)c1cccc(C2=CCN(C(c3ccc(OC(F)(F)F)cc3)C(F)(F)F)CC2)n1 (stereo not drawn) [Compound 64, 1′-[2,2,2-Trifluoro-1-(4-trifluoromethoxyphenyl)ethyl]-1′,2′,3′,6′-tetrahydro-[2,4′]bipyridinyl-6-carboxylic acid cyclopropylamide] showed an IC50 of 320 nM.
O=C(NC1CC1)c1cccc(C2=CCN(C(CO)c3ccc(OC(F)(F)F)cc3)CC2)n1 (stereo not drawn) [Compound 67, 1′-[2-Hydroxy-1-(4-trifluoromethoxyphenyl)ethyl]-1′,2′,3′,6-tetrahydro-[2,4′]bipyridinyl-6-carboxylic acid cyclopropylamide] gave an IC50 of 1340 nM.
For O=C(NC1CC1)c1cccc(C2=CCN(Cc3cc(C(F)(F)F)no3)CC2)n1 [Compound 76, N-Cyclopropyl-6-{1-[(3-trifluoromethylisoxazol-5-yl)methyl]-1,2,3,6-tetrahydropyridin-4-yl}picolinamide hydrochloride], the IC50 was 2760 nM.
In the case of O=C(Nc1cccc(C2=CCN(S(=O)(=O)c3cccc(C(F)(F)F)c3)CC2)n1)C1CC1 [Compound 82, 1′-(3-Trifluoromethylbenzenesulfonyl)-1′,2′,3′,6′-tetrahydro[2,4′]bipyridinyl-6-cyclopropanoylamine], the IC50 is reported as 300 nM.
Molecule O=C(NC1CC1)c1cccc(C2=CCN(S(=O)(=O)Nc3cccc(C(F)(F)F)c3)CC2)n1 [Compound 86, 1′-[(3-Trifluoromethylbenzene)aminosulfonyl]-1′,2′,3′,6′-tetrahydro-[2,4′]bipyridinyl-6-carboxylic acid cyclopropylamide] has an IC50 of 1050 nM.
